Structures can show the parent of a compound that is named as a salt.
Test: Cytotoxicity against MDCK cells assessed as cell viability after 48 hrs by MTT assay
Type: cell-based, Canis lupus familiaris
Conditions: dog, read-out: CTD50

Row | Compound | CC50 at 48 h
1 | CC1(C)[C@@H]2CC[C@@]1(C)/C(=N/CCC/N=C1\C[C@H]3CC[C@]1(C)C3(C)C)C2 | 284 µM
2 | CC1(C)[C@@H]2CC[C@@]1(C)/C(=N/CCCCCC/N=C1\C[C@H]3CC[C@]1(C)C3(C)C)C2 | 1350 µM
3 | CC1(C)[C@@H]2CC[C@@]1(C)/C(=N/CCCCCCC/N=C1\C[C@H]3CC[C@]1(C)C3(C)C)C2 | 1260 µM
4 | CC1(C)[C@@H]2CC[C@@]1(C)/C(=N/CCCCCCCC/N=C1\C[C@H]3CC[C@]1(C)C3(C)C)C2 | 390 µM
5 | CC1(C)[C@@H]2CC[C@@]1(C)/C(=N/CCCCCCCCCCCC/N=C1\C[C@H]3CC[C@]1(C)C3(C)C)C2 | 2220 µM
6 | CC1(C)[C@@H]2CC[C@@]1(C)/C(=N/c1ccc(Cc3ccc(/N=C4\C[C@H]5CC[C@]4(C)C5(C)C)cc3)cc1)C2 | > 1070 µM
7 | CC1(C)[C@@H]2CC[C@@]1(C)/C(=N/c1ccc(Oc3ccc(/N=C4\C[C@H]5CC[C@]4(C)C5(C)C)cc3)cc1)C2 | > 1070 µM
8 | CC1(C)[C@@H]2CC[C@@]1(C)[C@H](NCCCCCCN[C@@H]1C[C@H]3CC[C@]1(C)C3(C)C)C2 | 5.4 µM
9 | CC1(C)[C@@H]2CC[C@@]1(C)[C@H](NCCCCCCCN[C@@H]1C[C@H]3CC[C@]1(C)C3(C)C)C2 | 10.4 µM
10 | CC1(C)[C@@H]2CC[C@@]1(C)[C@H](NCCCCCCCCCCCCN[C@@H]1C[C@H]3CC[C@]1(C)C3(C)C)C2 | 14.4 µM
11 | CC1(C)[C@@H]2CC[C@@]1(C)[C@H](Nc1ccc(Cc3ccc(N[C@@H]4C[C@H]5CC[C@]4(C)C5(C)C)cc3)cc1)C2 | > 638 µM
12 | CC1(C)[C@@H]2CC[C@@]1(C)[C@H](Nc1ccc(Oc3ccc(N[C@@H]4C[C@H]5CC[C@]4(C)C5(C)C)cc3)cc1)C2 | > 636 µM
13 | CN(CCCCCCN(C)[C@@H]1C[C@H]2CC[C@]1(C)C2(C)C)[C@@H]1C[C@H]2CC[C@]1(C)C2(C)C | 110 µM
14 | CN(CCCCCCCN(C)[C@@H]1C[C@H]2CC[C@]1(C)C2(C)C)[C@@H]1C[C@H]2CC[C@]1(C)C2(C)C | 698 µM
15 | CC1(C)[C@@H]2CC[C@@]1(C)/C(=N/c1ccc(Cc3ccc(N)cc3)cc1)C2 | 30.1 µM
16 | CC1(C)[C@@H]2CC[C@@]1(C)/C(=N/c1ccc(Oc3ccc(N)cc3)cc1)C2 | 32.9 µM
17 | CC(N)C1CC2CCC1C2 (stereo unspecified) | 1270 µM

Test: in vitro
Conditions: dog, MDCK cells
Description: Selectivity index, ratio of CTD50 for MDCK cells to ED50 for Influenza A virus (A/California/07/09(H1N1)) pdm09

Row | Compound | selectivity ratio
18 | CC1(C)[C@@H]2CC[C@@]1(C)/C(=N/CCC/N=C1\C[C@H]3CC[C@]1(C)C3(C)C)C2 | 30
19 | CC1(C)[C@@H]2CC[C@@]1(C)/C(=N/CCCCCC/N=C1\C[C@H]3CC[C@]1(C)C3(C)C)C2 | 89
20 | CC1(C)[C@@H]2CC[C@@]1(C)/C(=N/CCCCCCC/N=C1\C[C@H]3CC[C@]1(C)C3(C)C)C2 | 55
21 | CC1(C)[C@@H]2CC[C@@]1(C)/C(=N/CCCCCCCC/N=C1\C[C@H]3CC[C@]1(C)C3(C)C)C2 | 16
22 | CC1(C)[C@@H]2CC[C@@]1(C)/C(=N/CCCCCCCCCCCC/N=C1\C[C@H]3CC[C@]1(C)C3(C)C)C2 | 49
23 | CC1(C)[C@@H]2CC[C@@]1(C)/C(=N/c1ccc(Cc3ccc(/N=C4\C[C@H]5CC[C@]4(C)C5(C)C)cc3)cc1)C2 | 3
24 | CC1(C)[C@@H]2CC[C@@]1(C)/C(=N/c1ccc(Oc3ccc(/N=C4\C[C@H]5CC[C@]4(C)C5(C)C)cc3)cc1)C2 | 3
25 | CC1(C)[C@@H]2CC[C@@]1(C)[C@H](NCCCCCCN[C@@H]1C[C@H]3CC[C@]1(C)C3(C)C)C2 | 7
26 | CC1(C)[C@@H]2CC[C@@]1(C)[C@H](NCCCCCCCN[C@@H]1C[C@H]3CC[C@]1(C)C3(C)C)C2 | 3
27 | CC1(C)[C@@H]2CC[C@@]1(C)[C@H](NCCCCCCCCCCCCN[C@@H]1C[C@H]3CC[C@]1(C)C3(C)C)C2 | 3
28 | CC1(C)[C@@H]2CC[C@@]1(C)[C@H](Nc1ccc(Cc3ccc(N[C@@H]4C[C@H]5CC[C@]4(C)C5(C)C)cc3)cc1)C2 | 4
29 | CC1(C)[C@@H]2CC[C@@]1(C)[C@H](Nc1ccc(Oc3ccc(N[C@@H]4C[C@H]5CC[C@]4(C)C5(C)C)cc3)cc1)C2 | 3
30 | CN(CCCCCCN(C)[C@@H]1C[C@H]2CC[C@]1(C)C2(C)C)[C@@H]1C[C@H]2CC[C@]1(C)C2(C)C | 1
31 | CN(CCCCCCCN(C)[C@@H]1C[C@H]2CC[C@]1(C)C2(C)C)[C@@H]1C[C@H]2CC[C@]1(C)C2(C)C | 17
32 | CC1(C)[C@@H]2CC[C@@]1(C)/C(=N/c1ccc(Cc3ccc(N)cc3)cc1)C2 | 2
33 | CC1(C)[C@@H]2CC[C@@]1(C)/C(=N/c1ccc(Oc3ccc(N)cc3)cc1)C2 | 8
34 | NC12CC3CC(CC(C3)C1)C2 [AMANTADINE] | 4
35 | CC1(C)C2CC[C@@]1(C)C(=O)C2 [CAMPHOR] | 2
36 | CC(N)C12CC3CC(CC(C3)C1)C2 (stereo unspecified) [RIMANTADINE HYDROCHLORIDE] | 5

From ChEMBL document CHEMBL3232826
